ChEMBL document CHEMBL3351990, “Jiangrines A-F and jiangolide from an actinobacterium, Jiangella gansuensis” (J Nat Prod, 2014)

Assays:
RAW264.7 [1] = assay: Antiinflammatory activity in mouse RAW264.7 cells assessed as inhibition of LPS-induced NO production incubated for 1 hr prior to LPS-challenge measured after 24 hrs by Greiss assay; format: functional, cell-based
RAW264.7 [2] = assay: Cytotoxicity against mouse RAW264.7 cells assessed as cell viability at 100 uM; format: cell-based; settings: raw264.7, 100 µM
RAW264.7 [3] = assay: Antiinflammatory activity in mouse RAW264.7 cells assessed as inhibition of LPS-induced NO production at 100 uM incubated for 1 hr prior to LPS-challenge measured after 24 hrs by Greiss assay; format: functional

IC50 (RAW264.7 [1]) [µM]	SMILES	Activity (RAW264.7 [2])	inhibition at 100 µM (RAW264.7 [3]) [%]
30.1	CO[C@H](c1ccc(C=O)n1CCc1ccc(O)cc1)[C@H](O)CO	Non-toxic	
30.1	CO[C@@H](c1ccc(C=O)n1CCc1ccc(O)cc1)[C@H](O)CO	Non-toxic	
54.9	CC(=O)NCCCCCn1cccc1C=O	Non-toxic	
58.8	O=Cc1ccc(CO)n1CCc1ccc(O)cc1	Non-toxic	
	O=c1[nH]cnc2c1-c1cccn1CC2	Non-toxic	< 20
61.4	C[C@H]1/C=C\C[C@H]2[C@@H](CC[C@@H]2O)CC(=O)OC[C@H]2O[C@@H](O1)[C@H](O)[C@@H](O)[C@@H]2O	Non-toxic	
97.8	O=Cc1ccc([C@H](O)[C@H](O)CO)n1CCc1ccc(O)cc1 (relative stereo)	Non-toxic	
60.7	O=Cc1ccc([C@H](O)[C@H](O)CO)n1CCc1c[nH]c2ccccc12 (relative stereo)	Non-toxic	

SMILES	IC50 (RAW264.7 [1]) [µM]	Activity (RAW264.7 [2])	inhibition at 100 µM (RAW264.7 [3]) [%]
COC(=O)[C@@H](N)CCCNC(=N)N[N+](=O)[O-] [L-NAME]	53.6		
